# Like-named read-outs stand apart in the source and are kept apart here.
# Assays:
# Varicella-Zoster Virus = assay: CPE inhibition in stationary cells (visual), VZV in HFF cells; format: cell-based
# HFF cells = assay: CC50 in HFF cells (Table 3); format: cell-based, human; conditions: HFF cells
# Procedure: (§1) The cells were observed daily for any change in morphology. The rounding and lysis of cells were observed if the compound has cytotoxic effect. At the end of this time, the media-drug solution was removed and the cells washed. […] The cells-media mixture was then pipetted up and down several times to resuspend the cells and 0.2 ml of the cell suspension was added to 9.8 ml of trypan blue and cells were counted using hemocytometer. Each sample was counted three times with three replicate wells per sample.
# MEF cells = assay: CC50 in MEF cells (Table 3); format: cell-based; conditions: Mouse Cytomegalovirus section of Table 3
# Daudi cells = assay: CC50 in Daudi cells (Table 3); format: cell-based
# Procedure: (§9) Raji is a Burkitt's lymphoma cell line containing 60 EBV genome/cell, and was the primary cell used for screening antiviral activity against EBV early antigen (EA) expression. Daudi is a low level producer that contains 152 EBV genome copies/cell. It spontaneously expresses EBV EA in 0.25-0.5% of the cells. It was used in follow-up studies to confirm activity. […] All cell lines were maintained in RPMI-1640 medium supplemented with 10% FCS, L-glutamine and 100 μg/ml gentamicin. The cultures were fed twice weekly and the cell concentration was adjusted to 3×10^5/ml. The cells were kept at 37° C. in humidified atmosphere with 5% CO2.
# Human Cytomegalovirus = assay: CPE inhibition in stationary cells (visual), HCMV in HFF cells; format: cell-based
# Epstein-Barr Virus = assay: VCA expression in EBV-infected Daudi cells
# From the text: Raji is a Burkitt's lymphoma cell line containing 60 EBV genome/cell, and was the primary cell used for screening antiviral activity against EBV early antigen (EA) expression. […] It spontaneously expresses EBV EA in 0.25-0.5% of the cells. It was used in follow-up studies to confirm activity. These cell lines respond to superinfection by EBV by expressing EA-diffuse component EA (D), EA restricted component EA (R), and viral capsid antigen (VCA). […] The cultures were fed twice weekly and the cell concentration was adjusted to 3×10^5/ml. The cells were kept at 37° C. in humidified atmosphere with 5% CO2.
# Cells were infected with the P3HR-1 strain of HBV and the test compound was added after adsorption (45 minutes at 37° C.) and washing of the cell cultures. The cultures were incubated for two days in complete medium to allow viral gene expression. Following the 48 hours of incubation, the numbers of cells of each sample was counted and smears were made. Monoclonal antibodies to the different EA components and VCA were then added to the cells and then incubated and washed. This is followed by a fluorescein conjugated rabbit anti-mouse IgG antibody, and the number of fluorescence cells in the smear were counted. The total number of cells in the cultures positive for EA or VCA were then calculated and compared.
# Mouse Cytomegalovirus = assay: CPE inhibition in stationary cells (visual), MCMV in MEF cells; format: cell-based; conditions: test compounds in DMSO
# [1] = test system: Primary human foreskin fibroblast cells (HFF); assay: Cell proliferation assay (cytotoxicity) in HFF cells; format: cell-based
# Procedure: (§2) Human laryngeal epithelial carcinoma cells (HEp-2, ATCC, Rockville, Md.) were used for testing of antiviral compounds by cytopathic effect (CPE) inhibition and plaque reduction assay. […] HEp-2, African green monkey kidney cells (Vero, ATCC), HFF and primary rabbit kidney cells were used to determine the cytotoxic effect of compounds of formula I. These cells were propagated in Dulbeco's modified Eagle's medium (DMEM) (Sigma, USA) supplemented with 10% inactivated fetal calf serum (FCS), 25 mM HEPES, 0.2% sodium bicarbonate and 1% penicillin/-streptomycin at 37° C. in the presence of 5% CO2.
# (§3) HFF, Vero and HEp-2 cells were seeded in 24-well tissue culture plates at a concentration of […] in DMEM containing 10% FCS and incubated for 24 hours at 37° C. in the presence of 5% CO2. To the monolayer of these cells 0.5, 1.0, 1.5 and 2.0 ml of solution of antiviral compounds were added in the respective wells in duplicate and the cells were then incubated in a 5% CO2 incubator at 37° C. for 72 hours. The cells were observed daily for any change in morphology. […] At the end of this time, the media-drug solution was removed and the cells washed. One ml of 0.25% trypsin was added to each well and incubated until the cells start to come off of the plate. The cells-media mixture was then pipetted up and down several times to resuspend the cells and 0.2 ml of the cell suspension was added to 9.8 ml of trypan blue and cells were counted using hemocytometer. Each sample was counted three times with three replicate wells per sample.
# HSV-2 strain G = assay: CPE inhibition, HSV-2 strain G in HEp-2 cells; further: key: +++ = Complete cytopathic effect; ++ = Moderate cytopathic effect; + = Minimum cytopathic effect; − = No cytopathic effect; format: cell-based, herpes simplex virus type 2; conditions: conc. per compound (ng/ml)
# From the text: (§4) Human laryngeal epithelial carcinoma cells (HEp-2, ATCC, Rockville, Md.) were used for testing of antiviral compounds by cytopathic effect (CPE) inhibition and plaque reduction assay. Primary human foreskin fibroblast cells (HFF) obtained from Dr. E. R. Kern (Department of Pediatrics, University of Alabama Medical School, 309 Bevill Biomedical Research Building, 845 19th Street South, Birmingham, Ala., 35294-2170), were used for cytopathic effect (CPE) inhibition assay. HEp-2, African green monkey kidney cells (Vero, ATCC), HFF and primary rabbit kidney cells were used to determine the cytotoxic effect of compounds of formula I. These cells were propagated in Dulbeco's modified Eagle's medium (DMEM) (Sigma, USA) supplemented with 10% inactivated fetal calf serum (FCS), 25 mM HEPES, 0.2% sodium bicarbonate and 1% penicillin/-streptomycin at 37° C. in the presence of 5% CO2.
# (§5) The antiviral activity of the test compounds was determined against HSV-1 strain F, HSV-2 strain G (ATCC), HSV-1 strain E-377 and HSV-2 strain MS (Dr. E. R. Kern, see above), CMV strain AD 169 (NIH), HCMV (NIH), MCMV (NIH), and VZV strain Ellen (NIH). Highly infective virus stocks of HSV-1 and HSV-2 were prepared by infecting a confluent monolayer of HEp-2 (ATCC) or HFF in 150 cm^2 plastic tissue culture flasks (Falcon, USA) at a multiplicity of infection of 0.5 in DMEM supplemented with 10% inactivated fetal calf serum and 1% penicillin/streptomycin at 37° C. in the presence of 5% CO2. The infected cells were disrupted through three freeze/thaw cycles, and viruses were clarified from large cell debris by low speed centrifugation at 3000 rpm for 10 minutes. The virus suspension was separated, aliquoted and stored at −80° C. until assayed or used for animal infection. The stock HSV-1 (E377) and HSV-2 (MS strain) contained 3.5×10^8 and 1.1×10^7 pfu/ml respectively.
# (§6) Low passage HFF cells were seeded into 96-well tissue culture plates 24 hours prior to use at a cell concentration of 2.5×10^4 cells per ml in 0.2 ml of DMEM supplemented with 10% fetal calf serum. After 24 hours of incubation at 37° C. in the presence of 5% CO2, medium was removed and the test compounds were diluted two-fold in DMEM in the 96-well tissue culture plate containing monolayer. […] For both HSV-1 and HSV-2 assays, the virus concentration utilized was 1000 pfu/ml and for HCMV, MCMV, and VZV assay 2500 pfu/ml were used. The plates were then incubated at 37° C. in the presence of 5% CO2 for two to three days for HSV-1 and HSV-2, 10 days for VZV and 14 days for HCMV and MCMV. The virus induced cytopathic effect (CPE) was monitored microscopically every day. CPE of HSV-1 was recognized by cell rounding and clumping, while HSV-2 formed large syncytia along with rounding and clumping of cells. […] EC50s were estimated from graphical plots of percent CPE against the concentration of the test compounds. The EC50s for each compound are the mean of EC50s for three or more independent experiments. After three days of incubation period, media was aspirated and the cells stained with a 0.1% crystal violet solution for 30 minutes. The stain was then removed and the plates were rinsed with tap water, air dried and retained.
# HSV-2 (strain G) = assay: Plaque reduction assay, HSV-2 strain G in HEp-2 cells; format: cell-based, herpes simplex virus type 2; conditions: conc. per compound (ng/ml) (Acyclovir 250), HSV-2 virus control 47
# Procedure: (§7) HEp-2 cells were grown to monolayer in 24 well tissue culture plates in DMEM containing 10% fetal calf serum at 37° C. for 24-36 hours in the presence of 5% CO2. The monolayer of HEp-2 cells was infected with 0.1 ml of HSV- 1 (strain F) or HSV-2 (strain G) containing 100 pfu. The viruses were allowed to adsorb for 1 hour at 37° C. in the presence of 5% CO2. All wells containing virus infected cells except virus control were overlaid with 0.9 ml of DMEM and 1 ml of test compound. The virus control and cell control received DMEM only. All microtiter plates were incubated at 37° C. in the presence of 5% CO2 and observed twice daily for 72 hours for viral CPE. At the end of the experiment, plates were stained with 0.1% crystal violet and the results were quantified by counting plaque forming units.
# HSV-1 strain E-377 = assay: CPE inhibition assay, HSV-1 E377 in human foreskin fibroblast cells; format: cell-based, herpes simplex virus type 1; conditions: CPE inhibition in HFF cells
# Procedure: (§8) Stock solutions of the compounds used for the testing of antiviral activity against HSV-1 and HSV-2 were prepared in distilled water, filtered through 0.2 μm filter (Acrodisco®, Gelman Sciences, USA) and stored at room temperature until used.
# as §4, §5, §6
# HSV-1 strain F = assay: CPE inhibition, HSV-1 strain F in HEp-2 cells; further: key: +++ = Complete cytopathic effect; ++ = Moderate cytopathic effect; + = Minimum cytopathic effect; − = No cytopathic effect; format: cell-based, herpes simplex virus type 1; conditions: conc. per compound (ng/ml)
# From the text: as §4, §5, §6
# [2] = test system: Human laryngeal epithelial carcinoma cells (HEp-2); assay: Cytotoxicity in HEp-2 cells; format: cell-based
# Procedure: as §2, §3
# HSV-2 strain MS = assay: CPE inhibition assay, HSV-2 MS in human foreskin fibroblast cells; format: cell-based, herpes simplex virus type 2; conditions: CPE inhibition in HFF cells
# Procedure: as §8, §4, §5, §6
# [3] = CC50 in HFF cells (Table 3); format: cell-based, human; conditions: human
# Procedure: as §1
# [4] = CC50 in Daudi cells (Table 3); format: cell-based; conditions: human
# Procedure: as §9
# [5] = CC50 in MEF cells (Table 3); format: cell-based; conditions: Mouse Cytomegalovirus section of Table 3
# HSV-1 (strain F) = assay: Plaque reduction assay, HSV-1 strain F in HEp-2 cells; format: cell-based, herpes simplex virus type 1; conditions: conc. per compound as in column Conc. (ng/ml), HSV-1 virus control 5
# Procedure: as §7
# [6] = Human Cytomegalovirus section of Table 3
# [7] = Varicella-Zoster Virus section of Table 3
# [8] = Daudi cells, Epstein-Barr Virus section of Table 3
# [9] = Epstein-Barr Virus, Daudi cells, VCA, test compounds in DMSO
# [10] = HEp-2 cells, conc. per compound (ng/ml)
# [11] = Human alphaherpesvirus 3, test compounds in DMSO, read-out: EC50
# [12] = HFF cells, Human Cytomegalovirus section of Table 3, read-out: CC50
# [13] = Human betaherpesvirus 5, test compounds in DMSO, read-out: EC50
# [14] = human gammaherpesvirus 4, Daudi
Molecule,EC50 (Varicella-Zoster Virus; test compounds in DMSO) [µg/mL],CC50 (HFF cells; [6]) [µg/mL],CC50 (HFF cells; [7]) [µg/mL],CC50 (Daudi cells; [8]) [µg/mL],EC50 (Human Cytomegalovirus; test compounds in DMSO) [µg/mL],EC50 (Epstein-Barr Virus; [9]) [µg/mL],Cytopathic Effect (CPE) Inhibition HSV-2 Strain G (HSV-2 strain G),Plaque Reduction Assay Average pfu/10^5 Cells HSV-2 Strain G (HSV-2 (strain G)) [pfu/10^5 Cells],EC50 HSV-1 E377 (HSV-1 strain E-377) [µg/mL],Cytopathic Effect (CPE) Inhibition HSV-1 Strain F (HSV-1 strain F),"Cell Cytotoxicity [2, 10]",EC50 HSV-2 MS (HSV-2 strain MS) [µg/mL],EC50 (Varicella-Zoster Virus; [11]) [µg/mL],"CC50 at 72 h [3, 12] [µg/mL]",EC50 (Human Cytomegalovirus; [13]) [µg/mL],EC50 (Epstein-Barr Virus; [14]) [µg/mL],also measured
Betulin succinate,>0.02,0.0969,0.0688,>0.05,0.0039,>0.05,,,,,,,,,,,CC50 (MEF cells): 0.014 µg/mL; EC50 (Mouse Cytomegalovirus): >0.004 µg/mL
"C[C@@H]1O[C@@H](O[C@H]2[C@H](O[C@H]3CC[C@@]4(C)[C@@H](CC[C@]5(C)[C@@H]4CC=C4[C@@H]6CC(C)(C)CC[C@]6(C(=O)O)CC[C@]45C)[C@]3(C)CO)OC[C@H](O)[C@@H]2O)[C@H](O)[C@H](O)[C@H]1O [Hederine hydrate, α-hederin hydrate]",>0.004,0.01,0.0115,0.0038,>0.004,0.0015,++,38,>0.25,++,−,>0.25,,,,,"CC50 ([1]; Human foreskin fibroblast cells, reduces growth of uninfected cells by 50%): >0.25 µg/mL"
C[C@H]1[C@H](C)CC[C@]2(C(=O)O)CC[C@]3(C)C(=CC[C@@H]4[C@@]5(C)CC[C@H](O)C(C)(C)[C@@H]5CC[C@]43C)[C@H]12 [Ursolic acid],,,,,,,++,33,,++,−,,> 0.0008,> 0.1,> 0.1,0.0485,"CC50 at 72 h ([3]; HFF cells, Varicella-Zoster Virus section of Table 3, read-out: CC50): 0.0029 µg/mL; CC50 ([4]; Daudi cells, Epstein-Barr Virus section of Table 3, read-out: CC50): > 0.05 µg/mL"
"Nc1nc(O)c2ncn(COC(CO)CO)c2n1 [Ganciclovir ®, Ganciclovir, reference compound]",,,,,,,,,,,,,,> 100,0.1,,CC50 [5]: > 100 µg/mL; EC50 (Mouse Cytomegalovirus; read-out: EC50): 0.9 µg/mL
C=C(C)[C@@H]1CC[C@]2(COP(=O)(O)O)CC[C@]3(C)[C@H](CC[C@@H]4[C@@]5(C)CC[C@H](OP(=O)(O)O)C(C)(C)[C@@H]5CC[C@]43C)[C@@H]12 [Betulin diphosphate],,,,,,,,,,,,,> 0.1,,,0.00039,CC50 at 72 h ([3]; CC50): > 0.1 µg/mL; CC50 [4]: > 0.05 µg/mL
C[C@H]1[C@H](C)CC[C@]2(CO)CC[C@]3(C)C(=CC[C@@H]4[C@@]5(C)CC[C@H](O)C(C)(C)[C@@H]5CC[C@]43C)[C@H]12 [Uvaol],>0.02,,,,>0.1,0.00031,++,28,>0.25,++,,>0.25,,,,,CC50 [1]: 0.125 µg/mL; Plaque Reduction Assay Average pfu/10^5 Cells HSV-1 Strain F (HSV-1 (strain F)): 0 pfu/10^5 Cells; Cell Cytotoxicity [2]: −; CC50 (Daudi cells): 0.0443 µg/mL
